Results taken from US10131652B2, “Pyrimidinyloxy benzene derivatives as herbicides” (E. I. DU PONT DE NEMOURS AND COMPANY, priority 2014, dated 2018).
Where two headings read alike, the source gives them in different places.

How the values were obtained:
Format in all cases: in vivo
[1] = test system: pigweed (Amaranthus retroflexus); experiment: Test E pre-/postemergence plant response; details: scale 0 to 100, read-out: Plant response rating, Pigweed; for pest or weed control at 16 g/ha: 16 g ai/ha; for pest or weed control at 31 g/ha: 31 g ai/ha; for pest or weed control at 62 g/ha: 62 g ai/ha; for pest or weed control at 125 g/ha: 125 g ai/ha
In short: (§1)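 Visual scores on a 0–100 scale (100 = complete control) were assigned against untreated controls 7–21 days after treatment in a controlled environment. Compounds, formulated with solvent plus surfactant, were applied to pre-emergence silt-loam sowings or to 1- to 4-leaf plants (2–18 cm) in potting medium.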

[2] = test system: green foxtail (Setaria viridis); experiment: Test E pre-/postemergence plant response; details: scale 0 to 100, read-out: Plant response rating, Foxtail, Green; for pest or weed control at 16 g/ha: 16 g ai/ha; for pest or weed control at 31 g/ha: 31 g ai/ha; for pest or weed control at 62 g/ha: 62 g ai/ha; for pest or weed control at 125 g/ha: 125 g ai/ha
In short: as §1

[3] = test system: chamomile (scentless chamomile, Matricaria inodora); experiment: Test E pre-/postemergence plant response; details: Tripleurospermum inodorum, scale 0 to 100, read-out: Plant response rating, Chamomile; for pest or weed control at 16 g/ha: 16 g ai/ha; for pest or weed control at 31 g/ha: 31 g ai/ha; for pest or weed control at 62 g/ha: 62 g ai/ha; for pest or weed control at 125 g/ha: 125 g ai/ha
In short: as §1

[4] = test system: wild mustard (Sinapis arvensis); experiment: Test E pre-/postemergence plant response; details: Brassica, scale 0 to 100, read-out: Plant response rating, Mustard, Wild; for pest or weed control at 16 g/ha: 16 g ai/ha; for pest or weed control at 31 g/ha: 31 g ai/ha; for pest or weed control at 62 g/ha: 62 g ai/ha; for pest or weed control at 125 g/ha: 125 g ai/ha
In short: as §1

[5] = test system: Horseweed; experiment: Test F postemergence plant response; details: scale 0 to 100

| Compound | pest or weed control at 16 g/ha ([1]; post-emergence, Postemergence) [%] | pest or weed control at 31 g/ha ([1]; post-emergence, Postemergence) [%] | pest or weed control at 62 g/ha ([1]; post-emergence, Postemergence) [%] | pest or weed control at 125 g/ha ([1]; post-emergence, Postemergence) [%] | pest or weed control at 16 g/ha ([1]; pre-emergence, Preemergence) [%] | pest or weed control at 31 g/ha ([1]; pre-emergence, Preemergence) [%] | pest or weed control at 62 g/ha ([1]; pre-emergence, Preemergence) [%] | pest or weed control at 125 g/ha ([1]; pre-emergence, Preemergence) [%] | pest or weed control at 16 g/ha ([2]; post-emergence, Postemergence) [%] | pest or weed control at 31 g/ha ([2]; post-emergence, Postemergence) [%] | pest or weed control at 62 g/ha ([2]; post-emergence, Postemergence) [%] | pest or weed control at 125 g/ha ([2]; post-emergence, Postemergence) [%] | pest or weed control at 16 g/ha ([2]; pre-emergence, Preemergence) [%] | pest or weed control at 31 g/ha ([2]; pre-emergence, Preemergence) [%] | pest or weed control at 62 g/ha ([2]; pre-emergence, Preemergence) [%] | pest or weed control at 125 g/ha ([2]; pre-emergence, Preemergence) [%] | pest or weed control at 16 g/ha ([3]; post-emergence, Postemergence) [%] | pest or weed control at 31 g/ha ([3]; post-emergence, Postemergence) [%] | pest or weed control at 62 g/ha ([3]; post-emergence, Postemergence) [%] | pest or weed control at 125 g/ha ([3]; post-emergence, Postemergence) [%] | further results |
| --- | --- | --- | --- | --- | --- | --- | --- | --- | --- | --- | --- | --- | --- | --- | --- | --- | --- | --- | --- | --- | --- |
| Fc1cccc(Oc2ncc(Cl)cn2)c1-c1cc(C(F)F)no1 [Compound 144, 5-chloro-2-[2-[3-(difluoromethyl)-5-isoxazolyl]-3-fluorophenoxy]pyrimidine] | 98 | 100 | 100 | 100 | 100 | 100 | 100 | 100 | 40 | 50 | 80 | 100 | 20 | 35 | 95 | 100 | 80 | 75 | 80 | 95 | pest or weed control at 16 g/ha ([3]; pre-emergence, Preemergence): 15%; pest or weed control at 31 g/ha ([3]; pre-emergence, Preemergence): 20%; pest or weed control at 62 g/ha ([3]; pre-emergence, Preemergence): 100%; pest or weed control at 125 g/ha ([3]; pre-emergence, Preemergence): 100%; pest or weed control at 16 g/ha ([4]; post-emergence, Postemergence): 100%; pest or weed control at 31 g/ha ([4]; post-emergence, Postemergence): 100%; pest or weed control at 62 g/ha ([4]; post-emergence, Postemergence): 100%; pest or weed control at 125 g/ha ([4]; post-emergence, Postemergence): 100%; pest or weed control at 16 g/ha ([4]; pre-emergence, Preemergence): 90%; pest or weed control at 31 g/ha ([4]; pre-emergence, Preemergence): 100%; pest or weed control at 62 g/ha ([4]; pre-emergence, Preemergence): 100%; pest or weed control at 125 g/ha ([4]; pre-emergence, Preemergence): 100%; Plant response rating, Horseweed ([5]; 16 g ai/ha Postemergence): 0; Plant response rating, Horseweed ([5]; 31 g ai/ha Postemergence): 0; Plant response rating, Horseweed ([5]; 62 g ai/ha Postemergence): 10; Plant response rating, Horseweed ([5]; 125 g ai/ha Postemergence): 25 |
| Fc1cccc(Oc2ncc(Br)cn2)c1-c1cc(C(F)F)no1 [Compound 145, 5-bromo-2-[2-[3-(difluoromethyl)-5-isoxazolyl]-3-fluorophenoxy]pyrimidine] | 100 | 100 | 100 | 100 | 100 | 100 | 100 | 100 | 15 | 30 | 40 | 98 | 0 | 45 | 55 | 100 | 20 | 30 | 30 | 30 | pest or weed control at 16 g/ha ([3]; pre-emergence, Preemergence): 5%; pest or weed control at 31 g/ha ([3]; pre-emergence, Preemergence): 100%; pest or weed control at 62 g/ha ([3]; pre-emergence, Preemergence): 100%; pest or weed control at 125 g/ha ([3]; pre-emergence, Preemergence): 100%; pest or weed control at 16 g/ha ([4]; post-emergence, Postemergence): 100%; pest or weed control at 31 g/ha ([4]; post-emergence, Postemergence): 100%; pest or weed control at 62 g/ha ([4]; post-emergence, Postemergence): 100%; pest or weed control at 125 g/ha ([4]; post-emergence, Postemergence): 100%; pest or weed control at 16 g/ha ([4]; pre-emergence, Preemergence): 95%; pest or weed control at 31 g/ha ([4]; pre-emergence, Preemergence): 100%; pest or weed control at 62 g/ha ([4]; pre-emergence, Preemergence): 100%; pest or weed control at 125 g/ha ([4]; pre-emergence, Preemergence): 100%; Plant response rating, Horseweed ([5]; 16 g ai/ha Postemergence): 0; Plant response rating, Horseweed ([5]; 31 g ai/ha Postemergence): 20; Plant response rating, Horseweed ([5]; 62 g ai/ha Postemergence): 20; Plant response rating, Horseweed ([5]; 125 g ai/ha Postemergence): 40 |
